“Also recorded” adds a separate entry of the source.
What was measured:
zebrafish larvae = experiment: Suitability of fluorescent stains for in vivo gut visualisation
Procedure: In vivo labelling was achieved by rearing fish in a suspension of 0.05% quercetin (Sigma) for a minimum of 2 hours. To observe gut architecture and motility, larvae were anaesthetised larvae by immersion in 0.2 mg/ml 3-amino benzoic acid ethylester (MS222) (Sigma). Gut architecture and motility can be observed using the FITC and GFP filter sets.
Visualisation is achieved by the administration of a fluorescent dye to the embryo medium. The dye is swallowed by the fish but not readily absorbed and therefore fills the entire gut.
When viewed under a fluorescent microscope, the crypts and villi of the gut were apparent as the unstained tissue of the gut wall was highlighted in contrast to the fluorescent medium that filled the gut lumen. In addition, as staining can be performed in vivo, waves of peristalsis were observed (as indicated in the different positions of the gut wall).

zebrafish = experiment: DMSO tolerance of zebrafish; settings: in vivo
Description: Moreover, the inventors have discovered that zebrafish are also DMSO (dimethyl sulphoxide) tolerant. This is important as DMSO is used as a solvent to dissolve many drugs. The inventors have established that zebrafish can tolerate 1% DMSO. Thus, a candidate drug or other test substance may be dissolved in DMSO and administered to zebrafish by adding to the fish water to give a final concentration of DMSO of at least up to 1%. This is employed in various preferred aspects and embodiments of the present invention.

[1] = tested on: zebrafish larvae with PSA-induced IBD; experiment: Histology (haematoxylin and eosin sections) of gut in PSA-induced IBD; type: in vivo
[2] = tested on: zebrafish larvae with PSA-induced IBD; experiment: In vivo examination of gut architecture and motility (quercetin labelling) in PSA-induced IBD; settings: for Rescue of the IBD phenotype: IBD induced with PSA 3 to 5 d.p.f., drug added with PSA from 5 d.p.f.
TNFα = settings: co-administration with PSA from 3 to 8 d.p.f.

O=c1c(O)c(-c2ccc(O)c(O)c2)oc2cc(O)cc(O)c12 [quercetin]
Toxicity as in vivo gut stain (zebrafish larvae): low toxicity

C[S+](C)[O-] [DMSO, dimethyl sulphoxide]
Tolerated DMSO concentration in fish water (zebrafish): 1%

Nc1ccc(O)c(C(=O)O)c1 [5-ASA, 5-amino salicylic acid]
Effect when administered after the induction of disease changes ([1]; drug given after PSA induction): effective when administered after the induction of disease changes | Prevention/rescue of disease changes when co-administered with PSA ([1]; effective dose co-administered with PSA, histological analysis): able to prevent/rescue disease changes | Rescue of the IBD phenotype [2]: Rescue of the IBD phenotype was seen | Rescue of the IBD phenotype ([2]; listed as salicylic acid): rescue of the disease phenotype

O=C1CCC(N2C(=O)c3ccccc3C2=O)C(=O)N1 (stereo not drawn) [thalidomide]
Rescue / improvement in gut histology ([1]; co-administration with PSA from 3 to 8 d.p.f.): failed to show improvement; also recorded: neither rescues the disease changes | TNFα expression (TNFα): down-regulation of TNFα expression | Rescue of the in vivo disease phenotype ([2]; co-administration with PSA from 3 to 8 d.p.f., observed at 8 d.p.f.): failed to rescue the in vivo disease phenotype; also recorded: neither rescues the disease changes

— patent publication US20060233709A1, “Method for identifying novel treatments of inflammatory disease in the gut” (priority 2003, published 2006)
